The subject of the assay is Meloidogyne incognita. The assay is described as follows: Meloidogyne incognita test. The format is in vivo. The conditions noted are these: 336 h, lettuce, after 14 days, read-out: nematicidal efficacy (formation of galls). The method, then:
Meloidogyne incognita Test Solvent: 125.0 parts by weight of acetone To produce a suitable active compound preparation, 1 part by weight of active compound is mixed with the stated amount of solvent and the concentrate is diluted with water to the desired concentration. Vessels are filled with sand, active compound solution, an egg/larvae suspension of the southern rootknot nematode (Meloidogyne incognita) and lettuce seeds. The lettuce seeds germinate and the plants develop. The galls develop on the roots. After 14 days, the nematicidal efficacy in % is determined by the formation of galls. 100% means that no galls were found; 0% means that the number of galls on the treated plants corresponds to the untreated control.

As for `Cn1cc(C(=O)NS(=O)(=O)c2ccccc2OC(C)(C)C)nc1-c1c(F)cccc1F` [Example 376], the pest or weed control at 20 ppm was 90%.
As for `Cn1cc(C(=O)NS(=O)(=O)c2cc(Cl)c(Cl)s2)nc1-c1c(F)cccc1F` [Example 355], the pest or weed control at 20 ppm was found to be 90%.
`COc1cccc(OC(C)C)c1S(=O)(=O)NC(=O)c1cn(C)c(-c2c(F)cccc2F)n1` [Example 380]: the pest or weed control at 20 ppm was determined as 100%.
For `COc1ccccc1S(=O)(=O)NC(=O)c1cn(C)c(-c2ccccc2Oc2ccccc2)n1` [Example 486] the value was 90%.
For `O=C(NS(=O)(=O)c1c(Cl)cccc1Cl)c1cc(-c2ccccc2Cl)n(-c2ncccc2Cl)n1` [Example 263], the pest or weed control at 20 ppm came out at 100%.
As to `CCNc1ccccc1S(=O)(=O)NC(=O)c1cn(C)c(-c2ccccc2Cl)n1` [Example 251], the pest or weed control at 20 ppm was found to be 90%.
For `COc1ccc(Cl)c(S(=O)(=O)NC(=O)c2c(Cl)nc(-c3ccccc3Cl)n2C)c1` [Example 203] the value was 100%.
For `CCc1[nH]c(-c2cccc(C)c2C)nc1C(=O)NS(=O)(=O)c1ccccc1Cl` [Example 472], the pest or weed control at 20 ppm is 90%.
For `Cn1cc(C(=O)NS(=O)(=O)c2ccccc2C(C)(C)C)nc1-c1c(F)cccc1F` [Example 360], the pest or weed control at 20 ppm worked out at 90%.
Next, `CC(C)N(C)S(=O)(=O)NC(=O)c1cn(C)c(-c2c(F)cccc2F)n1` [Example 551]: 90%; `Cc1[nH]c(-c2ccccc2F)nc1C(=O)NS(=O)(=O)c1ccccc1Cl` [Example 626]: 90%.
For the molecule `Cc1[nH]c(-c2ccc(F)cc2F)nc1C(=O)NS(=O)(=O)C(C)C` [Example 622], the pest or weed control at 20 ppm came to 90%.
As to `Cn1nc(-c2c(F)cccc2F)nc1C(=O)NS(=O)(=O)c1ccccc1Br` [Example 408], the pest or weed control at 20 ppm stood at 90%.
Take `CCc1[nH]c(-c2ccc(F)c(F)c2)nc1C(=O)NS(=O)(=O)c1ccccc1Cl` [Example 471]: the pest or weed control at 20 ppm was determined as 90%.
For `COc1cccc(C(C)C)c1S(=O)(=O)NC(=O)c1cn(C)c(-c2c(F)cccc2F)n1` [Example 377] the value was 90%; for `CC(C)c1ccccc1S(=O)(=O)NC(=O)c1cn(C)c(-c2c(F)cccc2F)n1` [Example 359], 90%; for `COc1ccc(Cl)c(S(=O)(=O)NC(=O)c2nc(-c3ccccc3F)[nH]c2C)c1` [Example 627], 90%.
For the molecule `COc1ccc(S(=O)(=O)NC(=O)c2cn(C)c(-c3c(F)cccc3F)n2)cn1` [Example 344], the pest or weed control at 20 ppm worked out at 90%.
In the case of `COc1ccc(Cl)c(S(=O)(=O)NC(=O)c2nc(-c3cccc(C(C)C)c3)[nH]c2C)c1` [Example 621], the pest or weed control at 20 ppm amounted to 90%.
For the molecule `O=C(NS(=O)(=O)c1ccccc1Cl)c1cc(-c2ccccc2Cl)n(-c2ncccc2Cl)n1` [Example 262], the pest or weed control at 20 ppm amounted to 90%.
Regarding `Cn1cc(C(=O)NS(=O)(=O)c2ccccc2Cl)nc1-c1ccc(F)c(F)c1` [Example 544], the pest or weed control at 20 ppm came out at 100%.
Next, `Cn1cc(C(=O)NS(=O)(=O)c2c(C(F)(F)F)cccc2[Si](C)(C)C)nc1-c1c(F)cccc1F` [Example 375]: 90%.
Take `Cc1ccccc1S(=O)(=O)NC(=O)c1cn(C)c(-c2ccccc2C(C)C)n1` [Example 473]: the pest or weed control at 20 ppm was found to be 90%.
Consider `Cc1ccccc1S(=O)(=O)NC(=O)c1cc(-c2ccccc2Cl)n(-c2ncccc2Cl)n1` [Example 261], for which the pest or weed control at 20 ppm worked out at 90%.
As to `Cc1ccccc1S(=O)(=O)NC(=O)c1nc(-c2c(F)cccc2F)nn1C` [Example 410], the pest or weed control at 20 ppm stood at 90%.
As to `Cc1cc(C(=O)NS(=O)(=O)c2ccccc2Br)nn1-c1ccccc1C(F)(F)F` [Example 292], the pest or weed control at 20 ppm amounted to 90%.
For the molecule `COc1ccccc1S(=O)(=O)NC(=O)c1nc(-c2c(F)cccc2F)nn1C` [Example 409], the pest or weed control at 20 ppm worked out at 90%.
Consider `COc1ccccc1S(=O)(=O)NC(=O)c1cn(C)c(-c2cccc3c2OC(F)(F)O3)n1` [Example 543], for which the pest or weed control at 20 ppm came out at 90%.
As to `CCSc1ccccc1-c1nc(C(=O)NS(=O)(=O)c2ccccc2C)cn1C` [Example 475], the pest or weed control at 20 ppm amounted to 90%.
Consider `COc1ccccc1S(=O)(=O)NC(=O)c1cn(C)c(-c2ccncc2)n1` [Example 487], for which the pest or weed control at 20 ppm is 90%.
Take `Cn1c(-c2ccccc2Cl)nc(C(=O)NS(=O)(=O)c2ccccc2Cl)c1Br` [Example 580]: the pest or weed control at 20 ppm turned out to be 100%.
For `CC(C)Nc1ccccc1S(=O)(=O)NC(=O)c1cn(C)c(-c2ccccc2Cl)n1` [Example 253], the pest or weed control at 20 ppm is 90%.
As to `Cc1[nH]c(-c2c(F)cccc2Cl)nc1C(=O)NS(=O)(=O)c1ccccc1Cl` [Example 623], the pest or weed control at 20 ppm turned out to be 100%.
For `Cn1cc(C(=O)NS(=O)(=O)c2ccccc2Cl)nc1-c1ccccc1Oc1ccccc1` [Example 484] the value was 100%.
As to `CCOc1cccc(C(C)C)c1S(=O)(=O)NC(=O)c1cn(C)c(-c2c(F)cccc2F)n1` [Example 384], the pest or weed control at 20 ppm came to 90%.
For `Cc1ccccc1NS(=O)(=O)NC(=O)c1cn(C)c(-c2c(F)cccc2F)n1` [Example 504] the value was 90%.
Consider `Cn1cc(C(=O)NS(=O)(=O)c2ccccc2Cl)nc1-c1csc2ccccc12` [Example 522], for which the pest or weed control at 20 ppm turned out to be 90%.
For the molecule `COc1ccccc1S(=O)(=O)NC(=O)c1cn(C)c(-c2ccc(Cl)c(Cl)c2)n1` [Example 537], the pest or weed control at 20 ppm came to 100%.
For `COc1ccc(Cl)c(S(=O)(=O)NC(=O)c2cc(-c3ncccc3Cl)n(-c3ccccc3Cl)n2)c1` [Example 457], the pest or weed control at 20 ppm came out at 100%.
`CCc1[nH]c(-c2cccc(Cl)c2Cl)nc1C(=O)NS(=O)(=O)c1ccccc1C` [Example 260]: the pest or weed control at 20 ppm stood at 100%.
With `CCc1[nH]c(-c2ccc(F)cc2F)nc1C(=O)NS(=O)(=O)c1cc(OC)ccc1Cl` [Example 244], the pest or weed control at 20 ppm amounted to 90%.
For `O=C(NS(=O)(=O)c1ccccc1Cl)c1cc(-c2ncccc2Cl)n(-c2ccccc2Cl)n1` [Example 264] the value was 100%; for `Cc1ccccc1S(=O)(=O)NC(=O)c1cn(C)c(-c2ccc(F)c(F)c2)n1` [Example 545], 100%; for `Cc1[nH]c(-c2ccc(Cl)cc2)nc1C(=O)NS(=O)(=O)c1ccccc1Cl` [Example 232], 90%.
Turning to `COc1ccccc1S(=O)(=O)NC(=O)c1cn(C)c(-c2cc(Cl)ccc2Cl)n1` [Example 527], the pest or weed control at 20 ppm turned out to be 90%.
Consider `COc1ccccc1S(=O)(=O)NC(=O)c1cn(C)c(-c2ccccc2-c2ccccc2)n1` [Example 534], for which the pest or weed control at 20 ppm amounted to 90%.
In the case of `Cc1ccc(C(C)C)cc1S(=O)(=O)NC(=O)c1cn(C)c(-c2c(F)cccc2F)n1` [Example 396], the pest or weed control at 20 ppm was determined as 90%.
Consider `CC(C)S(=O)(=O)NC(=O)c1cn(C)c(-c2c(F)cccc2F)n1` [Example 85], for which the pest or weed control at 20 ppm amounted to 90%.
For `CCc1[nH]c(-c2c(F)cccc2F)nc1C(=O)NS(=O)(=O)c1cc(OC)ccc1Cl` [Example 246] the value was 90%.

These data come from US20200288710A1, “SUBSTITUTED SULPHONAMIDES FOR CONTROLLING ANIMAL PESTS” (BAYER CROPSCIENCE AKTIENGESELLSCHAFT, priority 2016, published 2020).
